Test results taken from patent US12077503B2, “Substituted cyclic amides and their use as herbicides” (FMC CORPORATION, priority 2015, dated 2024).
Read-outs that look alike come from different tables or passages of the source.

Experiments:
Assay type in all cases: in vivo
[1] = tested on: sedge, umbrella (small-flower umbrella sedge, Cyperus difformis); test: Test B flooded paddy test; conditions: Cyperus difformis, Flood, 250 g ai/ha, read-out: Sedge, Umbrella plant response rating
Procedure, shortened: (§1)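 2-leaf plants; pots flooded 3 cm over soil; cpd added to paddy water; depth held; greenhouse 13–15 d; visual rating vs controls, 0 = no effect, 100 = complete control.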

rice (Oryra sativa) = test: Test B flooded paddy test; conditions: Oryza sativa, Flood, 250 g ai/ha, read-out: Rice plant response rating
Procedure, shortened: as §1

[2] = tested on: ducksalad (Heteranthera limosa); test: Test B flooded paddy test; conditions: Heteranthera limosa, Flood, 250 g ai/ha, read-out: Ducksalad plant response rating
Procedure, shortened: as §1

[3] = tested on: barnyardgrass (Echinochloa crus-galli); test: Test B flooded paddy test; conditions: Echinochloa crus-galli, Flood, 250 g ai/ha, read-out: Barnyardgrass plant response rating
Procedure, shortened: as §1

[4] = tested on: ragweed (common ragweed, Ambrosia elatior); test: Test A preemergence; conditions: Ambrosia artemisiifolia, pre-emergence, 240 h; for pest or weed control at 125 g/ha: 125 g ai/ha; for pest or weed control at 500 g/ha: 500 g ai/ha
Procedure, shortened: (§2)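 In a loam soil and sand blend, planted seeds got a preemergence directed soil spray, and young plants at the one- to two-leaf stage, 2–10 cm high, got a postemergence application; ~10 d greenhouse hold; injury rated visually, 0 = none, 100 = complete control.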

[5] = tested on: barnyardgrass (Echinochloa crus-galli); test: Test A preemergence; conditions: Echinochloa crus-galli, pre-emergence, 240 h; for pest or weed control at 125 g/ha: 125 g ai/ha; for pest or weed control at 500 g/ha: 500 g ai/ha
Procedure, shortened: as §2

[6] = tested on: giant foxtail (Setaria faberii); test: Test A preemergence; conditions: Setaria faberi, pre-emergence, 240 h; for pest or weed control at 125 g/ha: 125 g ai/ha; for pest or weed control at 500 g/ha: 500 g ai/ha
Procedure, shortened: as §2

[7] = tested on: ryegrass, Italian (Italian ryegrass, Lolium multiflorum); test: Test A preemergence; conditions: Lolium multiflorum, pre-emergence, 240 h; for pest or weed control at 125 g/ha: 125 g ai/ha; for pest or weed control at 500 g/ha: 500 g ai/ha
Procedure, shortened: as §2

Kochia (Kochia scoparia) = test: Test A preemergence; conditions: Bassia scoparia, pre-emergence, 240 h; for pest or weed control at 125 g/ha: 125 g ai/ha; for pest or weed control at 500 g/ha: 500 g ai/ha
Procedure, shortened: as §2

[8] = tested on: pigweed (Amaranthus retroflexus); test: Test A preemergence; conditions: Amaranthus retroflexus, pre-emergence, 240 h; for pest or weed control at 125 g/ha: 125 g ai/ha; for pest or weed control at 500 g/ha: 500 g ai/ha
[9] = tested on: ragweed (common ragweed, Ambrosia elatior); test: Test A postemergence; conditions: Ambrosia artemisiifolia, post-emergence, 240 h, postemergence; for pest or weed control at 125 g/ha: 125 g ai/ha
Procedure, shortened: as §2

corn (Zea mays) = test: Test A postemergence; conditions: Zea mays, post-emergence, 240 h, postemergence; for plant injury at 125 g/ha: 125 g ai/ha
Procedure, shortened: as §2

[10] = tested on: blackgrass (Alopecurus myosuroides); test: Test A postemergence; conditions: Alopecurus myosuroides, post-emergence, 240 h, postemergence; for pest or weed control at 125 g/ha: 125 g ai/ha
Procedure, shortened: as §2

[11] = tested on: ryegrass, Italian (Italian ryegrass, Lolium multiflorum); test: Test A postemergence; conditions: Lolium multiflorum, post-emergence, 240 h, postemergence; for pest or weed control at 125 g/ha: 125 g ai/ha
Procedure, shortened: as §2

[12] = tested on: pigweed (Amaranthus retroflexus); test: Test A postemergence; conditions: Amaranthus retroflexus, post-emergence, 240 h, postemergence; for pest or weed control at 125 g/ha: 125 g ai/ha
Procedure, shortened: as §2

[13] = scale of 0 to 100 where 0 is no effect and 100 is complete control
[14] = preemergence, 0 to 100 scale where 0 is no effect and 100 is complete control, read-out: Ragweed plant response rating
[15] = preemergence, 0 to 100 scale where 0 is no effect and 100 is complete control, read-out: Barnyardgrass plant response rating
[16] = preemergence, 0 to 100 scale where 0 is no effect and 100 is complete control, read-out: Foxtail, Giant plant response rating
[17] = preemergence, 0 to 100 scale where 0 is no effect and 100 is complete control, read-out: Ryegrass, Italian plant response rating
[18] = preemergence, 0 to 100 scale where 0 is no effect and 100 is complete control, read-out: Kochia plant response rating
[19] = preemergence, 0 to 100 scale where 0 is no effect and 100 is complete control, read-out: Pigweed plant response rating
[20] = 0 to 100 scale where 0 is no effect and 100 is complete control

SMILES: COc1cc(C(F)(F)F)ccc1[C@H]1CN(C)C(=O)[C@@H]1C(=O)Nc1ccccc1F [Compound 858]
- pest or weed control at 250 g/ha [1, 13]: 0%
- pest or weed control at 250 g/ha (rice (Oryra sativa); [13]): 0%
- pest or weed control at 250 g/ha [2, 13]: 100%
- pest or weed control at 250 g/ha [3, 13]: 45%
- pest or weed control at 125 g/ha [4, 14]: 0%
- pest or weed control at 500 g/ha ([4]; Preemergence, visual injury vs untreated controls after approximately 10 d, read-out: Ragweed plant response rating (0 to 100 scale where 0 is no effect and 100 is complete control)): 30%
- pest or weed control at 125 g/ha [5, 15]: 90%
- pest or weed control at 500 g/ha ([5]; Preemergence, visual injury vs untreated controls after approximately 10 d, read-out: Barnyardgrass plant response rating (0 to 100 scale where 0 is no effect and 100 is complete control)): 90%
- pest or weed control at 125 g/ha [6, 16]: 90%
- pest or weed control at 500 g/ha ([6]; Preemergence, visual injury vs untreated controls after approximately 10 d, read-out: Foxtail, Giant plant response rating (0 to 100 scale where 0 is no effect and 100 is complete control)): 90%
- pest or weed control at 125 g/ha [7, 17]: 30%
- pest or weed control at 500 g/ha ([7]; Preemergence, visual injury vs untreated controls after approximately 10 d, read-out: Ryegrass, Italian plant response rating (0 to 100 scale where 0 is no effect and 100 is complete control)): 70%
- pest or weed control at 125 g/ha (Kochia (Kochia scoparia); [18]): 60%
- pest or weed control at 500 g/ha (Kochia (Kochia scoparia); Preemergence, visual injury vs untreated controls after approximately 10 d, read-out: Kochia plant response rating (0 to 100 scale where 0 is no effect and 100 is complete control)): 70%
- pest or weed control at 125 g/ha [8, 19]: 20%
- pest or weed control at 500 g/ha ([8]; Preemergence, visual injury vs untreated controls after approximately 10 d, read-out: Pigweed plant response rating (0 to 100 scale where 0 is no effect and 100 is complete control)): 50%
- pest or weed control at 125 g/ha ([9]; visual injury rating after approximately 10 d, read-out: Ragweed plant response rating (0 to 100 scale, 0 no effect, 100 complete control)): 0%
- plant injury at 125 g/ha (corn (Zea mays); visual injury rating after approximately 10 d, read-out: Corn plant response rating (0 to 100 scale, 0 no effect, 100 complete control)): 20%
- pest or weed control at 125 g/ha ([10]; visual injury rating after approximately 10 d, read-out: Blackgrass plant response rating (0 to 100 scale, 0 no effect, 100 complete control)): 0%
- pest or weed control at 125 g/ha ([11]; visual injury rating after approximately 10 d, read-out: Ryegrass, Italian plant response rating (0 to 100 scale, 0 no effect, 100 complete control)): 20%
- pest or weed control at 125 g/ha ([12]; visual injury rating after approximately 10 d, read-out: Pigweed plant response rating (0 to 100 scale, 0 no effect, 100 complete control)): 20%

SMILES: CCc1cc(CC)cc([C@H]2CNC(=O)[C@@H]2C(=O)Nc2cccc(F)c2F)c1 [Compound 1139]
- pest or weed control at 250 g/ha [1, 20]: 0%
- pest or weed control at 250 g/ha (rice (Oryra sativa); [20]): 20%
- pest or weed control at 250 g/ha [2, 20]: 30%
- pest or weed control at 250 g/ha [3, 20]: 0%
- pest or weed control at 125 g/ha ([4]; preemergence, 0 to 100 scale where 0 is no effect and 100 is complete control, approx. 10 d, read-out: Ragweed plant response rating): 50%
- pest or weed control at 500 g/ha [4, 14]: 50%
- pest or weed control at 125 g/ha ([5]; preemergence, 0 to 100 scale where 0 is no effect and 100 is complete control, approx. 10 d, read-out: Barnyardgrass plant response rating): 90%
- pest or weed control at 500 g/ha [5, 15]: 90%
- pest or weed control at 125 g/ha ([6]; preemergence, 0 to 100 scale where 0 is no effect and 100 is complete control, approx. 10 d, read-out: Foxtail, Giant plant response rating): 90%
- pest or weed control at 500 g/ha [6, 16]: 90%
- pest or weed control at 125 g/ha ([7]; preemergence, 0 to 100 scale where 0 is no effect and 100 is complete control, approx. 10 d, read-out: Ryegrass, Italian plant response rating): 30%
- pest or weed control at 500 g/ha [7, 17]: 70%
- pest or weed control at 125 g/ha (Kochia (Kochia scoparia); preemergence, 0 to 100 scale where 0 is no effect and 100 is complete control, approx. 10 d, read-out: Kochia plant response rating): 30%
- pest or weed control at 500 g/ha (Kochia (Kochia scoparia); [18]): 60%
- pest or weed control at 125 g/ha ([8]; preemergence, 0 to 100 scale where 0 is no effect and 100 is complete control, approx. 10 d, read-out: Pigweed plant response rating): 0%
- pest or weed control at 500 g/ha [8, 19]: 0%
- pest or weed control at 125 g/ha ([9]; visual injury on 0 to 100 scale (0 no effect, 100 complete control), approx. 10 d, read-out: Ragweed plant response rating): 0%
- pest or weed control at 500 g/ha ([9]; 500 g ai/ha, 0 to 100 scale, 0 is no effect, 100 is complete control, read-out: Ragweed plant response rating): 40%
- plant injury at 125 g/ha (corn (Zea mays); visual injury on 0 to 100 scale (0 no effect, 100 complete control), approx. 10 d, read-out: Corn plant response rating): 60%
- plant injury at 500 g/ha (corn (Zea mays); 500 g ai/ha, 0 to 100 scale, 0 is no effect, 100 is complete control, read-out: Corn plant response rating): 80%
- pest or weed control at 125 g/ha ([10]; visual injury on 0 to 100 scale (0 no effect, 100 complete control), approx. 10 d, read-out: Blackgrass plant response rating): 40%
- pest or weed control at 500 g/ha ([10]; 500 g ai/ha, 0 to 100 scale, 0 is no effect, 100 is complete control, read-out: Blackgrass plant response rating): 60%
- pest or weed control at 125 g/ha ([11]; visual injury on 0 to 100 scale (0 no effect, 100 complete control), approx. 10 d, read-out: Ryegrass, Italian plant response rating): 40%
- pest or weed control at 500 g/ha ([11]; 500 g ai/ha, 0 to 100 scale, 0 is no effect, 100 is complete control, read-out: Ryegrass, Italian plant response rating): 50%
- pest or weed control at 125 g/ha ([12]; visual injury on 0 to 100 scale (0 no effect, 100 complete control), approx. 10 d, read-out: Pigweed plant response rating): 0%
- pest or weed control at 500 g/ha ([12]; 500 g ai/ha, 0 to 100 scale, 0 is no effect, 100 is complete control, read-out: Pigweed plant response rating): 0%
